Data taken from patent US12306176B2, “Microfluidic bi-directional migration assay” (Ohio State Innovation Foundation, priority 2017, dated 2025).

Legend:
Type in all cases: cell-based, human
[1] = system: lactate dehydrogenase (LDH); assay: LDH activity colorimetric kinetic assay; conditions: EGF 25 ng/mL, 12 hours; not significant
Text: (§1) To investigate whether iEF has an effect on metabolic function of MDA-MB-231 cells, the activity levels of lactate dehydrogenase (LDH) and succinate dehydrogenase (SDH) were examined. LDH is an enzyme that catalyzes the interconversion of pyruvate to lactate as part of the glycolysis chain (Pelicano H, et al. (2006) Oncogene 25 (34):4633). SDH is an enzyme within Complex II of the mitochondria that is utilized in both the tricarboxylic acid (TCA) cycle as well as oxidative phosphorylation (OXPHOS) (Gottlieb E & Tomlinson IP (2005) Nat Rev Cancer. 5 (11):857). As part of the TCA cycle, SDH catalyzes the oxidation of succinate to fumarate, and as part of OXPHOS, SDH transfers two electrons from flavin adenine dinucleotide into the electron transport chain (Gottlieb E & Tomlinson IP (2005) Nat Rev Cancer. 5 (11):857). To determine whether LDH or SDH activity levels were changing, colorimetric kinetic assays were employed. […]
(§2) 1×10^6 cells/well were plated in 6 well plates in growth media for 12 hours followed by migration media (0.1% FBS) for an additional 12 hours. […] The LDH activity assay kit (Sigma-Aldrich, MAK066) and the SDH activity colorimetric assay kit (Sigma-Aldrich, MAK197) were used to quantify LDH and SDH activity respectively. […] For quantification of LDH and SDH, the protocols provided by the supplier were followed. […]

[2] = system: succinate dehydrogenase (SDH); assay: SDH activity colorimetric kinetic assay; conditions: EGF 25 ng/mL, 12 hours; not significant
Text: as §1, §2

MDA-MB-231 cells = assay: Microfluidic bi-directional migration (MBDM) assay, mean migration speed and persistence
Text: To quantify the effects of iEF treatment on directed cell migration speed and persistence, a custom microfluidic bi-directional microtrack (MBDM) assay was developed that enables real-time monitoring with time-lapse microscopy of cell motility.
In this study, the EF sensing mechanisms of breast cancer cells in response to asymmetric iEFs (<100 μV/cm) was investigated. Using a MBDM assay, changes in the speed and persistence of spontaneously migrating MDA-MB-231 breast cancer cells were observed. This cell type was selected for these studies because it is a putative metastatic breast cancer cell line that is also responsive to gradients of a chemoattractant such as EGF (Wang S J, et al. (2004) Exp Cell Res 300 (1):180-189; Wu A, et al. (2013) Proc Natl Acad Sci U S A 110(40):16103-16108). […] This configuration enables direct comparison of cell movement in response to iEFs applied primarily with the direction of cell migration (“parallel”) or against the direction of cell migration (“anti-parallel”) within the same microfluidic device. Here, the field direction is defined as the direction that has the higher peak magnitude, as well as higher time-average field strength.
To calculate persistence, the following protocol was followed for each cell tracked in a microtrack of the MBDM assay. A cell starts at position Pt at time t. After a single time increment, dt, the cell moves to a new position, Pt+dt. The distance traveled during this time is the absolute difference in the two positions denoted as Li: Li=|Pt+dt−Pt|
The total distance traveled is then the sum of all distances traveled during N time increments denoted as Lt. Additionally, the total time of travel is the number of time increments multiplied by the size of the time increments denoted as Tt.
The displacement is simply the difference between the final and initial position: Ld=|PFinal−PInitial|
The MBDM assay was designed to have three ports separated by 700 μm long arrays of parallel microtracks (FIG. 1D). The dimension of each port was 50 mm×15 mm. Cells were seeded in the center port and the top and bottom ports were designated as cell collection port and/or chemokine source reservoir port depending on the experimental condition. Microchannels were designed to have a square cross-section of 20 μm×20 μm. The cross-section dimensions were on the same order as the size of single cells and mimic the dimensions of pre-existing microtracks available to cells in-vivo (Kraning-Rush C M, et al. (2013) lntegr Biol (Camb). 5 (3):606-616). Moreover, these migratory tracks are representative of physiologically relevant matrix metalloproteinase independent cancer-cell migration mode during metastasis (Friedl P & Alexander S (2011) Cell 147 (5):992-1009; Wolf K, et al. (2009) Semin Cell Dev Biol. 20 (8):931-941; Friedl P & Wolf K (2003) Nat Rev Cancer. 3 (5):362; Wolf K, et al. (2007) Nat Cell Biol. 9 (8):893; Wolf K, et al. (2003) J Cell Biol. 160 (2):267-277). The bi-directional design of this assay allows cells to migrate in either direction from the seeding port and provides a better understanding and quantification of the directional bias of external cues such as chemokine gradients and the directional effects of applied iEFs. The large ports for cell seeding ensure uniform seeding density, excellent cell viability, and repeatability.
Cells were washed in culture plates with 1×PBS solution, treated with 0.05% trypsin-EDTA solution (Sigma-Aldrich), and then counted using a hemocytometer. Cells (2×10^5) suspended in migration media were seeded in the middle port (seeding port) with an extremely small flow from the collection ports to the seeding port, which equilibrated in less than 15 minutes. The cells inside the devices were then incubated for 12 hours in migration media following which the media was aspirated and replaced with new media based on the experimental conditions. […]

With epidermal growth factor [EGF] the “change of LDH activity from control” value [1] was less than 6%, the “increase of SDH activity” value [2] was 23% and the mean migration speed (MDA-MB-231 cells; EGF gradient (25 ng/mL) alone, no iEF, no inhibitor) was 0.43 μm/min. For the same substance, the average persistence (MDA-MB-231 cells; stable EGF gradient alone) was 0.84, the “increase of persistence compared to untreated control” value (MDA-MB-231 cells; stable EGF gradient alone) was 6% and the “mean migration speed compared to untreated controls” value (MDA-MB-231 cells; stable EGF gradient alone) was “increased significantly”.
